# Assay results published in patent US9302999B2, “Substituted triazoles as herbicides” (E. I. DU PONT DE NEMOURS AND COMPANY, priority 2012, dated 2016).
# Tests used:
# Type in all cases: in vivo
# [1] = test system: buckwheat, wild (wild buckwheat, Polygonum convolvulus); experiment: Test D pre-/postemergence: buckwheat, wild
# Outline: (§1)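 Pre- and postemergence herbicide screen. Soil for pre: silt loam; post medium: peat moss, vermiculite, wetting agent, starter nutrients. Plant stage at post: 1- to 4-leaf. Readout: visual % control, 14–21 days.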
# [2] = test system: crabgrass, Brazil (Brazilian crabgrass, Digitaria horizontalis); experiment: Test F pre-/postemergence: crabgrass, Brazil
# Outline: (§2)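 Preemergence treatment of seeds sown in silt loam soil, and postemergence treatment of plants 2–18 cm tall (1- to 4-leaf stage), with compounds in non-phytotoxic solvent plus surfactant. Greenhouse 14–21 days, then visual rating versus controls on 0–100 scale (100 = complete control).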
# [3] = test system: lambsquarters (Chenopodium album); experiment: Test F pre-/postemergence: lambsquarters; settings: Preemergence
# Outline: as §2
# [4] = test system: morningglory (Ipomoea coccinea); experiment: Test F pre-/postemergence: morningglory; settings: Preemergence
# Outline: as §2
# [5] = test system: pigweed, palmer (palmer pigweed, Amaranthus palmeri); experiment: Test F pre-/postemergence: pigweed, palmer
# Outline: as §2
# [6] = test system: kochia (Kochia scoparia); experiment: Test D pre-/postemergence: kochia
# Outline: as §1
# [7] = test system: bromegrass, downy (downy bromegrass, Bromus tectorum); experiment: Test D pre-/postemergence: bromegrass, downy
# Outline: as §1
# [8] = Postemergence, 31 g ai/ha, scale 0 to 100 (0 no effect, 100 complete control)
# [9] = Postemergence, 62 g ai/ha, scale 0 to 100 (0 no effect, 100 complete control)
# [10] = Postemergence, 125 g ai/ha, scale 0 to 100, 0 no effect, 100 complete control
# [11] = Postemergence, 16 g ai/ha, scale 0 to 100
# [12] = Preemergence, 16 g ai/ha, scale 0 to 100, 0 no effect, 100 complete control
# [13] = Preemergence, 31 g ai/ha, scale 0 to 100, 0 no effect, 100 complete control
# [14] = Preemergence, 62 g ai/ha, scale 0 to 100
# [15] = Preemergence, 125 g ai/ha, scale 0 to 100
# [16] = Postemergence, 8 g ai/ha, scale 0 to 100
# [17] = Postemergence, 31 g ai/ha, scale 0 to 100
# [18] = Postemergence, 62 g ai/ha, scale 0 to 100
# [19] = Postemergence, 125 g ai/ha, scale 0 to 100
# [20] = 8 g ai/ha, scale 0 to 100, 0 no effect, 100 complete control
# [21] = 16 g ai/ha, scale 0 to 100, 0 no effect, 100 complete control
# [22] = 31 g ai/ha, scale 0 to 100, 0 no effect, 100 complete control
# [23] = Preemergence, 250 g ai/ha, scale 0 to 100
# [24] = Postemergence, 250 g ai/ha, scale 0 to 100
compound,measurement,setting,value
"CCOc1nn(-c2ccc(F)cc2)nc1Cc1ccnc(C(F)(F)F)c1 [Compound 196, 4-[[5-ethoxy-2-(4-fluorophenyl)-2H-1,2,3-triazol-4-yl]methyl]-2-(trifluoromethyl)pyridine]","Plant response rating: Buckwheat, Wild",[1]; [8],70
same,"Plant response rating: Buckwheat, Wild",[1]; [9],90
same,"Plant response rating: Buckwheat, Wild",[1]; [10],95
same,"Plant response rating, Buckwheat, Wild",[1]; [11],50
same,"Plant response rating, Buckwheat, Wild",[1]; [12],60
same,"Plant response rating, Buckwheat, Wild",[1]; [13],45
same,"Plant response rating, Buckwheat, Wild",[1]; [14],70
same,"Plant response rating, Buckwheat, Wild",[1]; [15],95
same,"Plant response rating, Crabgrass, Brazil",[2]; [16],60
same,"Plant response rating, Crabgrass, Brazil",[2]; [11],75
same,"Plant response rating, Crabgrass, Brazil",[2]; [17],85
same,"Plant response rating, Crabgrass, Brazil",[2]; [18],95
same,"Plant response rating, Crabgrass, Brazil",[2]; [19],95
same,"Plant response rating, Lambsquarters",[3]; [20],60
same,"Plant response rating, Lambsquarters",[3]; [21],70
same,"Plant response rating, Lambsquarters",[3]; [22],80
same,"Plant response rating, Lambsquarters","[3]; 62 g ai/ha, scale 0 to 100",95
same,"Plant response rating, Lambsquarters","[3]; 125 g ai/ha, scale 0 to 100",98
same,"Plant response rating, Morningglory",[4]; [20],0
same,"Plant response rating, Morningglory",[4]; [21],30
same,"Plant response rating, Morningglory",[4]; [22],30
same,"Plant response rating, Morningglory","[4]; 125 g ai/ha, scale 0 to 100",70
same,"Plant response rating, Pigweed, Palmer",[5]; [16],95
same,"Plant response rating, Pigweed, Palmer",[5]; [11],100
same,"Plant response rating, Pigweed, Palmer",[5]; [17],100
same,"Plant response rating, Pigweed, Palmer",[5]; [18],100
same,"Plant response rating, Pigweed, Palmer",[5]; [19],100
same,Plant response rating: Kochia,[6]; [8],85
same,Plant response rating: Kochia,[6]; [9],90
same,Plant response rating: Kochia,[6]; [10],90
same,"Plant response rating, Kochia",[6]; [11],70
same,"Plant response rating, Kochia",[6]; [12],35
same,"Plant response rating, Kochia",[6]; [13],70
same,"Plant response rating, Kochia",[6]; [14],100
same,"Plant response rating, Kochia",[6]; [15],100
same,"Plant response rating: Bromegrass, Downy",[7]; [8],35
same,"Plant response rating: Bromegrass, Downy",[7]; [9],50
same,"Plant response rating: Bromegrass, Downy",[7]; [10],65
same,"Plant response rating, Bromegrass, Downy",[7]; [11],15
same,"Plant response rating, Bromegrass, Downy",[7]; [12],5
same,"Plant response rating, Bromegrass, Downy",[7]; [13],15
same,"Plant response rating, Bromegrass, Downy",[7]; [14],70
same,"Plant response rating, Bromegrass, Downy",[7]; [15],90
Cc1nn(-c2ccc(C(F)(F)F)c(F)c2)nc1Oc1ccnc(C(F)(F)F)c1 [Compound 148],"Plant response rating: Buckwheat, Wild",[1]; [8],60
same,"Plant response rating: Buckwheat, Wild",[1]; [9],75
same,"Plant response rating: Buckwheat, Wild",[1]; [10],70
same,"Plant response rating, Buckwheat, Wild",[1]; [11],60
same,"Plant response rating, Buckwheat, Wild",[1]; [12],20
same,"Plant response rating, Buckwheat, Wild",[1]; [13],30
same,"Plant response rating, Buckwheat, Wild",[1]; [14],65
same,"Plant response rating, Buckwheat, Wild",[1]; [15],50
same,"Plant response rating, Crabgrass, Brazil",[2]; [12],100
same,"Plant response rating, Crabgrass, Brazil",[2]; [13],100
same,"Plant response rating, Crabgrass, Brazil",[2]; [14],100
same,"Plant response rating, Crabgrass, Brazil",[2]; [15],100
same,"Plant response rating, Crabgrass, Brazil",[2]; [23],100
same,"Plant response rating, Lambsquarters",[3]; [21],0
same,"Plant response rating, Lambsquarters",[3]; [22],50
same,"Plant response rating, Lambsquarters","[3]; 62 g ai/ha, scale 0 to 100",98
same,"Plant response rating, Lambsquarters","[3]; 125 g ai/ha, scale 0 to 100",100
same,"Plant response rating, Lambsquarters","[3]; 250 g ai/ha, scale 0 to 100",100
same,"Plant response rating, Morningglory",[4]; [21],0
same,"Plant response rating, Morningglory",[4]; [22],30
same,"Plant response rating, Morningglory","[4]; 125 g ai/ha, scale 0 to 100",50
same,"Plant response rating, Morningglory","[4]; 250 g ai/ha, scale 0 to 100",70
same,"Plant response rating, Pigweed, Palmer",[5]; [12],0
same,"Plant response rating, Pigweed, Palmer",[5]; [13],90
same,"Plant response rating, Pigweed, Palmer",[5]; [15],100
same,"Plant response rating, Pigweed, Palmer",[5]; [23],100
same,Plant response rating: Kochia,[6]; [8],85
same,Plant response rating: Kochia,[6]; [9],85
same,Plant response rating: Kochia,[6]; [10],85
same,"Plant response rating, Kochia",[6]; [11],75
same,"Plant response rating, Kochia",[6]; [12],10
same,"Plant response rating, Kochia",[6]; [13],20
same,"Plant response rating, Kochia",[6]; [14],10
same,"Plant response rating, Kochia",[6]; [15],75
same,"Plant response rating: Bromegrass, Downy",[7]; [8],5
same,"Plant response rating: Bromegrass, Downy",[7]; [9],15
same,"Plant response rating: Bromegrass, Downy",[7]; [10],20
same,"Plant response rating, Bromegrass, Downy",[7]; [11],5
same,"Plant response rating, Bromegrass, Downy",[7]; [12],0
same,"Plant response rating, Bromegrass, Downy",[7]; [13],0
same,"Plant response rating, Bromegrass, Downy",[7]; [14],10
same,"Plant response rating, Bromegrass, Downy",[7]; [15],20
CCc1nn(-c2ccc(C(F)(F)F)cc2)nc1Oc1ccnc(C(F)(F)F)c1 [Compound 169],"Plant response rating, Crabgrass, Brazil",[2]; [24],30
same,"Plant response rating, Crabgrass, Brazil",[2]; [11],20
same,"Plant response rating, Crabgrass, Brazil",[2]; [17],20
same,"Plant response rating, Crabgrass, Brazil",[2]; [18],20
same,"Plant response rating, Crabgrass, Brazil",[2]; [19],20
same,"Plant response rating, Crabgrass, Brazil",[2]; [12],100
same,"Plant response rating, Crabgrass, Brazil",[2]; [13],100
same,"Plant response rating, Crabgrass, Brazil",[2]; [14],100
same,"Plant response rating, Crabgrass, Brazil",[2]; [15],100
same,"Plant response rating, Crabgrass, Brazil",[2]; [23],100
same,"Plant response rating, Lambsquarters",[3]; [21],0
same,"Plant response rating, Lambsquarters",[3]; [22],30
same,"Plant response rating, Lambsquarters","[3]; 62 g ai/ha, scale 0 to 100",98
same,"Plant response rating, Lambsquarters","[3]; 125 g ai/ha, scale 0 to 100",98
same,"Plant response rating, Lambsquarters","[3]; 250 g ai/ha, scale 0 to 100",100
same,"Plant response rating, Morningglory",[4]; [21],0
same,"Plant response rating, Morningglory",[4]; [22],0
same,"Plant response rating, Morningglory","[4]; 125 g ai/ha, scale 0 to 100",40
same,"Plant response rating, Morningglory","[4]; 250 g ai/ha, scale 0 to 100",40
same,"Plant response rating, Pigweed, Palmer",[5]; [24],100
same,"Plant response rating, Pigweed, Palmer",[5]; [11],50
same,"Plant response rating, Pigweed, Palmer",[5]; [17],50
same,"Plant response rating, Pigweed, Palmer",[5]; [18],90
same,"Plant response rating, Pigweed, Palmer",[5]; [19],100
same,"Plant response rating, Pigweed, Palmer",[5]; [12],35
same,"Plant response rating, Pigweed, Palmer",[5]; [13],100
same,"Plant response rating, Pigweed, Palmer",[5]; [15],100
same,"Plant response rating, Pigweed, Palmer",[5]; [23],100
